In patent US20240269304A1, “BCL-XL INHIBITOR ANTIBODY-DRUG CONJUGATES AND METHODS OF USE THEREOF” (Novartis AG, priority 2020, published 2024):
pIC50: −log10 of the molar value. Where two headings read alike, the source gives them in different places. Each block holds one compound with its values, some of them ahead of it.

Tests used:
[1] = test system: H1650 human non-small cell lung carcinoma (NSCLC) model; assay: In vivo efficacy of EGFR1-Bcl-xL inhibitor ADCs with different linker payloads in combination with docetaxel, H1650 xenografts (Example 16); set-up: species or system female SCID mice; settings: 7.5 mg/kg i.v. once + docetaxel 7.5 mg/kg iv 24 h later; for ΔTumor volume (mm^3) D21: mean±SEM; for Statistics 21 vs EGFR-L109A-P1 / Statistics D21 vs Vehicle gp / Statistics D46 vs EGFR-L109A-P1: one way ANOVA post hoc Tukey
Procedure: Tumor growth was monitored regularly post cell inoculation and animals were randomized into treatment groups (n=7) with a mean tumor volume of about 150 mm^3. […] The ADCs were administered intravenously (i.v.) once at the start of treatment at 7.5 mg/kg in combination with 7.5 mg/kg docetaxel (Zentiva: 1 ml/20 mg), which was administered i.v. once 24 h after the ADCs. Doses were adjusted to individual mouse body weights.
As a measure of efficacy, the %T/C value was calculated on day 21 according to:
(Δtumor volume treated/Δtumor volume control)*100 Tumor regression was calculated according to: […]
Where Δtumor volumes represent the mean tumor volume on the evaluation day minus the mean tumor volume at the start of the experiment.

[2] = ADC stability study: % aggregates by SEC after incubation at 37° C. for 168 h; assay type: physicochemical
Procedure: Size Exclusion Chromatography: Size exclusion chromatography (SEC) was performed for quality control of each ADCs by measuring monomer percentage of the conjugate. The analysis was performed on analytical column Superdex 200 Increase 5/150 GL (GE Healthcare, 28990945) in isocratic conditions 100% PBS pH7.4 (Sigma Life Science, P3813, 10PAK), flow 0.45 mI/min for 12 minutes. The % aggregate fraction of the conjugate sample was quantified based on the peak area absorbance at 280 nm. Its calculation was based on the ratio between the high molecular weight eluent at 280 nm divided by the sum of peak area absorbance at the same wavelength of the high molecular weight and monomeric eluents multiplied by 100.
Characterization of the exemplary ADCs is summarized in Table 13 (coupling, LC-MS method, OAR, aggregation status, ADO stability and yield). The average OAR values were determined using the above LC-MS methods and the percentage of aggregates was measured by size exclusion chromatography (SEC) during the quality control of the ADO and after the stability study (incubation at 37° C. for 168 h).

HCC1569 cells = assay: CellTiterGlo (CTG) cell viability, 120 h, HCC1569, single agent or with 10 nM Paclitaxel; assay type: cell-based
Procedure: HCC1569 cells were cultivated in RPMI supplemented with 10% heat inactivated fetal bovine serum, penicillin (100 IU/ml), streptomycin (100 μg/ml) and L-glutamine (2 mM). Cell lines were cultured at 37° C. in a humidified atmosphere containing 5% 002. […] Effects of ADCs on cell viability were assessed after 5 days of incubation at 37° C./5% CO2 by quantification of cellular ATP levels using CellTiterGlo at 75 μL reagent/well. All the conditions were tested in triplicates. Luminescence was quantified on a multipurpose plate reader. IC50s were calculated using standard four-parametric curve fitting.

H1650 cells = assay: CellTiterGlo (CTG) cell viability, 3D, 120 h, H1650 (Example 8); assay type: cell-based, human; settings: Homo sapiens, NCI-H1650, H1650 3D
LOUCY (T-ALL) = assay: CellTiter-Glo viability 72 h, single agent or 1/1 combination, LOUCY (Example 9); assay type: cell-based; settings: single agent or 1/1 combination as labelled
Procedure: (§1) Cell lines were cultured in the media described above at 37° C. in a humidified atmosphere containing 5% CO2. Cells were seeded in 96 well clear bottom plates (96 well clear-bottom, white, Corning reference 3903) and exposed to the payloads or ADCs at single agents or in 1/1 combinations with vincristine, ABT-199 or compound A2 for 72 h (serially diluted; 9 concentrations each, triplicates). Effects of payloads or ADCs on cell viability were assessed after 3 days of incubation at 37° C./5% CO2 by quantification of cellular ATP levels using CellTiter-Glo reagent (Promega Ref: G7571) at 75 μL reagent/well. All the conditions were tested in triplicates. Luminescence was quantified on a multipurpose plate reader. IC50s were calculated using standard four-parametric curve fitting. […] Each experiment was performed at least twice, with results being reproducible.

HPB-ALL (T-ALL) = assay: CellTiter-Glo viability 72 h, single agent or 1/1 combination with vincristine, ABT-199 or Compound A2, HPB-ALL (Example 9); assay type: cell-based; settings: Homo sapiens, HPBALL, single agent or 1/1 combination as labelled
Procedure: as §1

ALL-SILL (T-ALL) = assay: CellTiter-Glo viability 72 h, single agent or 1/1 combination, ALL-SIL (Example 9); assay type: cell-based; settings: single agent or 1/1 combination as labelled
Procedure: Cell lines were cultured in the media described above at 37° C. in a humidified atmosphere containing 5% CO2. […] Effects of payloads or ADCs on cell viability were assessed after 3 days of incubation at 37° C./5% CO2 by quantification of cellular ATP levels using CellTiter-Glo reagent (Promega Ref: G7571) at 75 μL reagent/well. All the conditions were tested in triplicates. Luminescence was quantified on a multipurpose plate reader. IC50s were calculated using standard four-parametric curve fitting.

SMILES: Cc1c(Nc2nc3ccccc3s2)nnc2c1CCCN2c1ccc(-c2cnn(CC34CC5(C)CC(C)(C3)CC(OCCN(CC[C@H](O)CO)C(=O)OCc3ccc(NC(=O)[C@H](CCCNC(N)=O)NC(=O)[C@@H](NC(=O)CCOCCN6C(=O)CC(C)C6=O)C(C)C)cc3CN(C)C(=O)CCOCCOCCOCCOCCOCCOCCOCCOCCOCCOCCOCCOCCOCCOCCOCCOCCOCCOCCOCCOCCOCCOCCOCCOCCOCCC(=O)O)(C5)C4)c2C)c(C(=O)O)n1 (mixture of isomers) [EGFR1-L11C-P19]
Regression (%) ([1]; day 21): −35%
ΔTumor volume (mm^3) D21 ([1]; day 21): −52 ± 21 mm^3
Statistics 21 vs EGFR-L109A-P1 [1]: P < 0.05
Statistics D21 vs Vehicle gp [1]: P < 0.05
Statistics D46 vs EGFR-L109A-P1 [1]: P < 0.05

SMILES: CNCCOCCOCCNC(=O)OC[C@@H]1[C@@H]2CCc3nnn(CCOCCOCCOCC(=O)N[C@H](C(=O)N[C@@H](CCCNC(N)=O)C(=O)Nc4ccc(COC(=O)N(C)CC#Cc5ccc(OCCCc6sc(N(C)c7cc(C)c(Nc8nc9ccccc9s8)nn7)nc6C(=O)O)c(F)c5)cc4)C(C)C)c3CC[C@@H]21 [Ab T - L23C-P7]
Stab w1 +37° C. % Agg (by SEC) [2]: 4%
IC50 (HCC1569 cells; read-out: HCC1569 CTG 120 h IC50 nM + Paclitaxel 10 nM Mean N1 and N2, in the presence of 10 nM Paclitaxel, mean): 0.213 nM
IC50 (HCC1569 cells; read-out: HCC1569 CTG 120 h IC50 nM + Paclitaxel 10 nM N1, in the presence of 10 nM Paclitaxel, N1): 0.287 nM
IC50 (HCC1569 cells; read-out: HCC1569 CTG 120 h IC50 nM + Paclitaxel 10 nM N2, in the presence of 10 nM Paclitaxel, N2): 0.139 nM
IC50 (HCC1569 cells; read-out: HCC1569 CTG 120 h IC50 nM Mean N1 and N2, single agent, mean): > 300 nM
IC50 (HCC1569 cells; read-out: HCC1569 CTG 120 h IC50 nM N1, single agent, N1): > 300 nM
IC50 (HCC1569 cells; read-out: HCC1569 CTG 120 h IC50 nM N2, single agent, N2): > 300 nM

SMILES: Cc1c(Nc2nc3ccccc3s2)nnc2c1CCCN2c1ccc(-c2cnn(CC34CC5(C)CC(C)(C3)CC(OCC[N+]3(Cc6ccc(NC(=O)[C@H](CCCNC(N)=O)NC(=O)[C@@H](NC(=O)CCOCCN7C(=O)CC(C)C7=O)C(C)C)cc6CN(C)C(=O)CCOCCOCCOCCOCCOCCOCCOCCOCCOCCOCCOCCOCCOCCOCCOCCOCCOCCOCCOCCOCCOCCOCCOCCOCCOCCC(=O)O)CCCC3)(C5)C4)c2C)c(C(=O)O)n1 (stereo partly drawn) [EGFR1-L11A-P21]
Regression (%) ([1]; day 21): −8%
ΔTumor volume (mm^3) D21 ([1]; day 21): −16 ± 20 mm^3
Statistics D21 vs Vehicle gp [1]: P < 0.05
Statistics D46 vs EGFR-L109A-P1 [1]: P < 0.05

SMILES: Cc1c(Nc2nc3ccccc3s2)nnc2c1CCCN2c1ccc(-c2cnn(CC34CC5(C)CC(C)(C3)CC(OCC[N+](C)(C)Cc3ccc(NC(=O)[C@H](CCCNC(N)=O)NC(=O)[C@@H](NC(=O)CCOCCN6C(=O)CC(C)C6=O)C(C)C)cc3CN(C)C(=O)CCOCCOCCOCCOCCOCCOCCOCCOCCOCCOCCOCCOCCOCCOCCOCCOCCOCCOCCOCCOCCOCCOCCOCCOCCOCCC(=O)O)(C5)C4)c2C)c(C(=O)O)n1 (stereo partly drawn) [EGFR1-L11A-P27]
T/C (%) D21 ([1]; day 21): 3%
ΔTumor volume (mm^3) D21 ([1]; day 21): 14 ± 18 mm^3
Statistics D21 vs Vehicle gp [1]: P < 0.05

SMILES: Cc1c(Nc2nc3ccccc3s2)nnc2c1CCCN2c1ccc(-c2cnn(CC34CC5(C)CC(C)(C3)CC(OCCN(CCCO)C(=O)OCc3ccc(NC(=O)[C@H](CCCNC(N)=O)NC(=O)[C@@H](NC(=O)CCOCCN6C(=O)CC(C)C6=O)C(C)C)cc3CN(C)C(=O)CCOCCOCCOCCOCCOCCOCCOCCOCCOCCOCCOCCOCCOCCOCCOCCOCCOCCOCCOCCOCCOCCOCCOCCOCCOCCC(=O)O)(C5)C4)c2C)c(C(=O)O)n1 (stereo partly drawn) [EGFR1-L11C-P25]
Regression (%) ([1]; day 21): −50%
ΔTumor volume (mm^3) D21 ([1]; day 21): −76 ± 17 mm^3
Statistics 21 vs EGFR-L109A-P1 [1]: P < 0.05
Statistics D21 vs Vehicle gp [1]: P < 0.05
Statistics D46 vs EGFR-L109A-P1 [1]: P < 0.05

pIC50 (H1650 cells; experiment n1, read-out: H1650 3D CTG IC50 n1): 8.12
pIC50 (H1650 cells; experiment n2, read-out: H1650 3D CTG IC50 n2): 8.33
pIC50 (H1650 cells; mean of n1 and n2, read-out: H1650 3D CTG IC50 Mean of n1 and n2): 8.21
IC50 (HCC1569 cells; Homo sapiens, HCC1569, read-out: HCC1569 CTG 120 h IC50 nM + Paclitaxel 10 nM Mean N1 and N2, in the presence of 10 nM Paclitaxel, mean): 0.436 nM
IC50 (HCC1569 cells; Homo sapiens, HCC1569, read-out: HCC1569 CTG 120 h IC50 nM + Paclitaxel 10 nM N1, in the presence of 10 nM Paclitaxel, N1): 0.443 nM
IC50 (HCC1569 cells; Homo sapiens, HCC1569, read-out: HCC1569 CTG 120 h IC50 nM + Paclitaxel 10 nM N2, in the presence of 10 nM Paclitaxel, N2): 0.429 nM
IC50 (HCC1569 cells; Homo sapiens, HCC1569, read-out: HCC1569 CTG 120 h IC50 nM Mean N1 and N2, single agent, mean): 33 nM
IC50 (HCC1569 cells; Homo sapiens, HCC1569, read-out: HCC1569 CTG 120 h IC50 nM N1, single agent, N1): 40.3 nM
IC50 (HCC1569 cells; Homo sapiens, HCC1569, read-out: HCC1569 CTG 120 h IC50 nM N2, single agent, N2): 25.6 nM
SMILES: CNCC#Cc1ccc(OCCCc2sc(N(C)c3cc(C)c(Nc4nc5ccccc5s4)nn3)nc2C(=O)O)c(F)c1 [P7, 2-[[6-(1,3-benzothiazol-2-ylamino)-5-methyl-pyridazin-3-yl]-methyl-amino]-5-[3-[2-fluoro-4-[3-(methylamino)prop-1-ynyl]phenoxy]propyl]thiazole-4-carboxylic acid]

SMILES: CC[C@]1(O)C[C@H]2CN(CCc3c([nH]c4ccccc34)[C@@](C(=O)OC)(c3cc4c(cc3OC)N(C=O)[C@H]3[C@@](O)(C(=O)OC)[C@H](OC(C)=O)[C@]5(CC)C=CCN6CC[C@]43[C@@H]65)C2)C1 [Vincristine, vincristine]
pIC50 (LOUCY (T-ALL); mean, read-out: LOUCY (T-ALL) IC50 mean): 9.14
pIC50 (LOUCY (T-ALL); n1, read-out: LOUCY (T-ALL) IC50 n1): 9.02
pIC50 (LOUCY (T-ALL); n2, read-out: LOUCY (T-ALL) IC50 n2): 9.30
pIC50 (HPB-ALL (T-ALL); mean, read-out: HPB-ALL (T-ALL) IC50 mean): 9.15
pIC50 (HPB-ALL (T-ALL); n1, read-out: HPB-ALL (T-ALL) IC50 n1): 9.17
pIC50 (HPB-ALL (T-ALL); n2, read-out: HPB-ALL (T-ALL) IC50 n2): 9.14
pIC50 (ALL-SILL (T-ALL); mean, read-out: ALL-SILL (T-ALL) IC50 mean): 10.05
pIC50 (ALL-SILL (T-ALL); n1, read-out: ALL-SILL (T-ALL) IC50 n1): 10.03
pIC50 (ALL-SILL (T-ALL); n2, read-out: ALL-SILL (T-ALL) IC50 n2): 10.08
